Here are results for 36 compounds from patent US9399626B2, “2-thiopyrimidinones” (Pfizer Inc., priority 2011, dated 2016).

Where a name gives a salt, the structure may show the parent alone.

For one experiment, the target named is T1, MPO (purified from human polynuclear leukocytes) (Homo sapiens, UniProt P05164).
T1 construct: purified from human polynuclear leukocytes; purchased Calbiochem/EMD Biosciences; host or cells: human polynuclear leukocytes (natural source)
T1 sequence (P05164 279-745 limits assumed): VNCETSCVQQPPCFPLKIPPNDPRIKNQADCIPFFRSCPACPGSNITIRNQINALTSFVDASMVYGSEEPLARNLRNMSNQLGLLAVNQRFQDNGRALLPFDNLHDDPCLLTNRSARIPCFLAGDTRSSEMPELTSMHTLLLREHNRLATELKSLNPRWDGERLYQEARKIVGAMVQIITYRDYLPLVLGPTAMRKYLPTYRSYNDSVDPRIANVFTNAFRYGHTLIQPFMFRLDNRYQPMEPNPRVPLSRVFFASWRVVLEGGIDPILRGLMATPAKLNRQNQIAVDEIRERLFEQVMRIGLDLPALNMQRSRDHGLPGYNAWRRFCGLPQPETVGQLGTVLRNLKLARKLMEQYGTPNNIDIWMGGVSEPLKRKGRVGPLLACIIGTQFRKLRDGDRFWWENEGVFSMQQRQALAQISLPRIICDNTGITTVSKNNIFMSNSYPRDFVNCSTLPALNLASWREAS
T1 sequence (P05164 165-273 limits assumed): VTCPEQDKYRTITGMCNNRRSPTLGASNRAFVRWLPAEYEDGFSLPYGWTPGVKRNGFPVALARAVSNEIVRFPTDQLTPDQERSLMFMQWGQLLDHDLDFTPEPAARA
Description: MPO Amplex Red Activity Assay. The class given is biochemical. The following applies: Table 1, 2 μM H2O2, pH 7.4. In a few lines:
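Potency is given as kinact/KI: kobs values from 600 s progress curves, minus the uninhibited rate, are fit against inhibitor concentration. Reactions use 2 μM H2O2, 30 μM Amplex Red, pH 7.4 phosphate buffer with NaCl, DTPA and 2% DMSO, started with […] human MPO. Readout is resorufin fluorescence, catalase background subtracted.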
Take `COc1ccc(-c2cc(=O)[nH]c(=S)n2CCOCCN)c(OC)c1` [Example 269, 1-[2-(2-aminoethoxy)ethyl]-6-(2,4-dimethoxyphenyl)-2-thioxo-2,3-dihydropyrimidin-4(1H)-one hydrochloride]: the “MPO kinact/Ki” value is given as 9510 1/s per M.
For `COCCn1c(-c2cccc3ccsc23)cc(=O)[nH]c1=S` [Example 73, 6-(1-benzothien-7-yl)-1-(2-methoxyethyl)-2-thioxo-2,3-dihydropyrimidin-4(1H)-one], the “MPO kinact/Ki” value was 9870 1/s per M.
Same read-out and setting: next, `COc1ccc(-c2cc(=O)[nH]c(=S)n2CCO)cc1` [Example 12, 1-(2-hydroxyethyl)-6-(4-methoxyphenyl)-2-thioxo-2,3-dihydropyrimidin-4(1H)-one]: 5010 1/s per M.
Turning to `COCCn1c(-c2cc(Cl)cnc2OC)cc(=O)[nH]c1=S` [Example 96, 6-(5-chloro-2-methoxypyridin-3-yl)-1-(2-methoxyethyl)-2-thioxo-2,3-dihydropyrimidin-4(1H)-one], the “MPO kinact/Ki” value is 2200 1/s per M.
Same read-out and setting: next, `COc1ncc(C)cc1-c1cc(=O)[nH]c(=S)n1CC(N)=O` [Example 44, 2-[6-(2-methoxy-5-methylpyridin-3-yl)-4-oxo-2-thioxo-3,4-dihydropyrimidin-1(2H)-yl]acetamide]: 3440 1/s per M.
`COCCn1c(-c2cn(C)c3ccccc23)cc(=O)[nH]c1=S` [Example 67, 1-(2-methoxyethyl)-6-(1-methyl-1H-indol-3-yl)-2-thioxo-2,3-dihydropyrimidin-4(1H)-one]: the “MPO kinact/Ki” value is recorded as 7520 1/s per M.
In the case of `COc1ccc(-c2cc(=O)[nH]c(=S)n2CCC(=O)N(C)C)c(OC)c1` [Example 237, 3-[6-(2,4-dimethoxyphenyl)-4-oxo-2-thioxo-3,4-dihydropyrimidin-1(2H)-yl]-N,N-dimethylpropanamide], the “MPO kinact/Ki” value was 2360 1/s per M.
On to `NC(=O)Cn1c(-c2cc3ccccc3s2)cc(=O)[nH]c1=S` [Example 69, 2-[6-(1-benzothien-2-yl)-4-oxo-2-thioxo-3,4-dihydropyrimidin-1(2H)-yl]acetamide], for which the “MPO kinact/Ki” value is recorded as 4250 1/s per M.
As to `COc1ncc(Cl)cc1-c1cc(=O)[nH]c(=S)n1CCCN` [Example 93, 1-(3-aminopropyl)-6-(5-chloro-2-methoxypyridin-3-yl)-2-thioxo-2,3-dihydropyrimidin-4(1H)-one hydrochloride], the “MPO kinact/Ki” value was 5120 1/s per M.
The same measure, in the same setting: as for `COc1ccc(-c2cc(=O)[nH]c(=S)n2CCNC(=O)[C@@H](N)C(C)C)c(OC)c1` [Example 263, N-{2-[6-(2,4-dimethoxyphenyl)-4-oxo-2-thioxo-3,4-dihydropyrimidin-1(2H)-yl]ethyl}-L-valinamide trifluoroacetate], the figure is 4340 1/s per M; as for `COCCn1c(-c2ccn[nH]2)cc(=O)[nH]c1=S` [Example 278, 1-(2-methoxyethyl)-6-(1H-pyrazol-5-yl)-2-thioxo-2,3-dihydropyrimidin-4(1H)-one], 1560 1/s per M; as for `COCCn1c(-c2cnc(N(C)C)nc2)cc(=O)[nH]c1=S` [Example 314, 2′-(dimethylamino)-3-(2-methoxyethyl)-2-thioxo-2,3-dihydro-4,5′-bipyrimidin-6(1H)-one], 429 1/s per M.
Same read-out and setting: as for `COCCn1c(-c2cccc(OC(F)(F)F)c2)cc(=O)[nH]c1=S` [Example 340], the figure is 1450 1/s per M.
`COCCn1c(-c2cccc(C#N)c2)cc(=O)[nH]c1=S` [Example 291, 3-[3-(2-methoxyethyl)-6-oxo-2-thioxo-1,2,3,6-tetrahydropyrimidin-4-yl]benzonitrile]: the “MPO kinact/Ki” value is 2450 1/s per M.
As to `COCCn1c(-c2cc(OC)c(C)cc2OC)cc(=O)[nH]c1=S` [Example 275, 6-(2,5-dimethoxy-4-methylphenyl)-1-(2-methoxyethyl)-2-thioxo-2,3-dihydropyrimidin-4(1H)-one], the “MPO kinact/Ki” value is recorded as 4730 1/s per M.
On the same count and under the same terms, next, `NC(=O)Cn1c(-c2ccc3c(c2)CCO3)cc(=O)[nH]c1=S` [Example 37, 2-[6-(2,3-dihydro-1-benzofuran-5-yl)-4-oxo-2-thioxo-3,4-dihydropyrimidin-1(2H)-yl]acetamide]: 6460 1/s per M; `COCCn1c(-c2ccc(S(C)(=O)=O)cc2)cc(=O)[nH]c1=S` [Example 110, 1-(2-methoxyethyl)-6-[4-(methylsulfonyl)phenyl]-2-thioxo-2,3-dihydropyrimidin-4(1H)-one]: 864 1/s per M.
On the same count and under the same terms, next, `COc1ccc(Cl)cc1-c1cc(=O)[nH]c(=S)n1CCCN` [Example 92, 1-(3-aminopropyl)-6-(5-chloro-2-methoxyphenyl)-2-thioxo-2,3-dihydropyrimidin-4(1H)-one hydrochloride]: 22100 1/s per M.
On the same count and under the same terms, as for `COCCn1c(-c2ccccc2C)cc(=O)[nH]c1=S` [Example 284, 1-(2-methoxyethyl)-6-(2-methylphenyl)-2-thioxo-2,3-dihydropyrimidin-4(1H)-one], the figure is 1470 1/s per M; as for `COc1ccc(-c2cc(=O)[nH]c(=S)n2CCNCC(=O)O)c(OC)c1` [Example 243, N-{2-[6-(2,4-dimethoxyphenyl)-4-oxo-2-thioxo-3,4-dihydropyrimidin-1(2H)-yl]ethyl}glycine hydrochloride], 952 1/s per M.
Turning to `COc1ccccc1-c1cc(=O)[nH]c(=S)n1CC(N)=O` [Example 17, 2-[6-(2-methoxyphenyl)-4-oxo-2-thioxo-3,4-dihydropyrimidin-1(2H)-yl]acetamide], the “MPO kinact/Ki” value is recorded as 4460 1/s per M.
Same read-out and setting: next, `COCCn1c(-c2ccc(C)nc2OC)cc(=O)[nH]c1=S` [Example 50, 1-(2-methoxyethyl)-6-(2-methoxy-6-methylpyridin-3-yl)-2-thioxo-2,3-dihydropyrimidin-4(1H)-one]: 2610 1/s per M.
With `COc1ccc(-c2cc(=O)[nH]c(=S)n2CCCN)cc1OC` [Example 82, 1-(3-aminopropyl)-6-(3,4-dimethoxyphenyl)-2-thioxo-2,3-dihydropyrimidin-4(1H)-one hydrochloride], the “MPO kinact/Ki” value is given as 3390 1/s per M.
In the case of `COCCn1c(-c2cccc(F)c2)cc(=O)[nH]c1=S` [Example 289, 6-(3-fluorophenyl)-1-(2-methoxyethyl)-2-thioxo-2,3-dihydropyrimidin-4(1H)-one], the “MPO kinact/Ki” value was 1580 1/s per M.
Same read-out and setting: as for `COc1cc(-c2cc(=O)[nH]c(=S)n2CCCN)c(OC)cc1C` [Example 106, 1-(3-aminopropyl)-6-(2,5-dimethoxy-4-methylphenyl)-2-thioxo-2,3-dihydropyrimidin-4(1H)-one hydrochloride], the figure is 10500 1/s per M; as for `COCCn1c(-c2ccc(O)cc2)cc(=O)[nH]c1=S` [Example 286, 6-(4-hydroxyphenyl)-1-(2-methoxyethyl)-2-thioxo-2,3-dihydropyrimdin-4(1H)-one], 1500 1/s per M.

Still in this experiment, the particulars now being: Table 1A, 2 μM H2O2, pH 7.4.
In the case of `NCCn1c(-c2cccc3ncsc23)cc(=O)[nH]c1=S` [Example 362, 1-(2-aminoethyl)-6-(1,3-benzothiazol-7-yl)-2-thioxo-2,3-dihydropyrimidin-4(1H)-one], the “MPO kinact/Ki” value is given as 2690 1/s per M.
Turning to `COc1ccc(-c2cc(=O)[nH]c(=S)n2CC(=O)N[C@H]2C[C@@H](N)C2)c(OC)c1` [Example 430, N-(cis-3-aminocyclobutyl)-2-[6-(2,4-dimethoxyphenyl)-4-oxo-2-thioxo-3,4-dihydropyrimidin-1(2H)-yl]acetamide], the “MPO kinact/Ki” value was 9440 1/s per M.
For the compound `COc1ccc(OCCO)c(-c2cc(=O)[nH]c(=S)n2CCO)c1` [Example 379, 6-[2-(2-hydroxyethoxy)-5-methoxyphenyl]-1-(2-hydroxyethyl)-2-thioxo-2,3-dihydropyrimidin-4(1H)-one], the “MPO kinact/Ki” value is given as 7370 1/s per M.
As to `NCCn1c(-c2cc(Cl)ccc2OCCO)cc(=O)[nH]c1=S` [Example 427, 1-(2-aminoethyl)-6-[5-chloro-2-(2-hydroxyethoxy)phenyl]-2-thioxo-2,3-dihydropyrimidin-4(1H)-one], the “MPO kinact/Ki” value is reported as 5360 1/s per M.
On the same count and under the same terms, next, `CNCCNC(=O)Cn1c(-c2ccc(OC)cc2OC)cc(=O)[nH]c1=S` [Example 391, 2-[6-(2,4-dimethoxyphenyl)-4-oxo-2-thioxo-3,4-dihydropyrimidin-1(2H)-yl]-N-[2-(methylamino)ethyl]acetamide]: 3480 1/s per M; `COc1ccc(-c2cc(=O)[nH]c(=S)n2CC(=O)N2CCNCC2)c(OC)c1` [Example 397, 6-(2,4-dimethoxyphenyl)-1-[2-oxo-2-(piperazin-1-yl)ethyl]-2-thioxo-2,3-dihydropyrimidin-4(1H)-one]: 4050 1/s per M; `COc1ccc(Cl)cc1-c1cc(=O)[nH]c(=S)n1CC(=O)NC(=N)N` [Example 376, N-carbamidoyl-2-[6-(5-chloro-2-methoxyphenyl)-4-oxo-2-thioxo-3,4-dihydropyrimidin-1(2H)-yl]acetamide]: 7870 1/s per M.
Still for that read-out and setting: as for `CCCNC(=O)Cn1c(-c2ccc(OC)cc2OC)cc(=O)[nH]c1=S` [Example 435, 2-[6-(2,4-dimethoxyphenyl)-4-oxo-2-thioxo-3,4-dihydropyrimidin-1(2H)-yl]-N-propylacetamide], the figure is 2420 1/s per M; as for `O=c1cc(-c2ccc3c(c2)OCCO3)n(CCO)c(=S)[nH]1` [Example 356, 6-(2,3-dihydro-1,4-benzodioxin-6-yl)-1-(2-hydroxyethyl)-2-thioxo-2,3-dihydropyrimidin-4(1H)-one], 2910 1/s per M.
With `NC(=O)Cn1c(-c2cc(F)ccc2OCCO)cc(=O)[nH]c1=S` [Example 412, 2-{6-[5-fluoro-2-(2-hydroxyethoxy)phenyl]-4-oxo-2-thioxo-3,4-dihydropyrimidin-1(2H)-yl}acetamide], the “MPO kinact/Ki” value is given as 3980 1/s per M.
